Data from patent US20230235374A1, “High Throughput Assays for Detecting Translation Readthrough Inducers” (The Trustees of the University of Pennsylvania, priority 2021, published 2023).

Columns and labels:
[1] = system: rRNA fragments I-IV of Stop-POST5; assay: RNaseH fragment assay, Stop-POST5; format: binding, shrimp (Artemia salina)
Protocol: (§1) RNaseH Fragment Assay. Total RNA was prepared from the ^3H-AzAt photoaffinity labeled ribosome by phenol-chloroform extraction. RNA: DNA duplexes were formed by incubating total RNA (0.2 μM) with an oligonucleotide pair (1 μM of each, sequences shown Table 1), flanking a specific RNA region, in 22.8 μL of water at 95° C. for 2 min, followed by annealing at 50° C. for 30 s and quenching on ice. Six units (1.2 μL) of RNase H (NEB) and 6 μl of 5×RNase H Reaction Buffer were next added to the RNA: DNA duplex and incubated at 37° C. for 1 hour, followed by phenol-chloroform extraction of RNA. The digested RNA was separated on 12% TBE-Urea PAGE gel, and the target band along with the adjacent upper and bottom gels were sliced by a 2 mm gel cutter. The gel slices were crushed and the ^3H labeled rRNA fragment was extracted in water by vigorously shaking at 70° C. for 30 min, or by overnight extraction in elution buffer (0.3M sodium acetate, 0.25% SDS, 1 mM EDTA). The slurry was removed by centrifugation and the eluted ^3H labeled rRNA in the supernatant was quantified. The stoichiometry of AzAt photoincorporation was calculated based on a gel recovery yield of 20±2%, determined using an authentic sample of [^3H]-Gln-tRNA^Gln.
Testing the functional pertinence of AzAt photolabeling of 18S A1195, 28S-A3093, 28S-A2672, and 28S-2669. An RNAse H fragment assay was employed to determine whether the potential functionally significant sites identified by LASER-seq correspond to ataluren binding sites relevant for termination activity. In this assay, oligonucleotide hybridization, RNase H digestion and polyacrylamide gel electrophoresis (PAGE) were used to determine the stoichiometry of [^3H]-AzAt photoincorporation into the three rRNA fragments that together include the four nucleotides of interest: Fragment I, 18S-A1195; Fragment II, 26S-A3093; Fragment III, 26S-A2669 and 26S-A2672 (Table 5). The separate addition of four potential competitors of AzAt binding (eRF1 alone, the stably bound eRF1.eRF3.GDPNP complex, ataluren, and the ataluren-like TRID GJ072) was used to test how these affected such photoincorporation. These experiments, the results of which are summarized in Table 5, were performed at two different AzAt concentrations. eRF1 and eRF1.eRF3.GDPNP effects were measured using 300 μM AzAt, paralleling the LASER-Seq PAL experiments.

[2] = system: Small RNAs within Stop-POST5 complex; assay: AzAt photoincorporation into small RNAs (urea-PAGE, RNAse H fragments); format: binding, shrimp (Artemia salina)
Protocol: FIG. 11 illustrates 8% Urea-PAGE resolution of small RNAs.
(§2) Photoaffinity labeling with [^3H]-AzAt. Samples in Buffer 4, typically 20 μL, were incubated in the dark (20 min for Stop-POST5 and 80S-IRES complexes, 2 min for release factors) with various concentrations of [^3H]-AzAt at 37° C., transferred to a UV-transparent cuvette which was covered with parafilm to prevent evaporation, and irradiated in a Rayonet photochemical reactor equipped with 300 nm UV lamps for 5 min at room temperature. This was followed by quenching with 2 mM DTT at 37° C. for 5 min under ambient light. The irradiation time gave complete photolysis of the phenyl azide moiety in AzAt. Photolysis was also complete at 5 min in the presence of 1 mM ataluren, ruling out internal filtering effects.
Stop-POST5 and 80S-IRES complexes. 1 μM solutions of either Stop-POST5 or 80S-S.IRES, determined by A260, were photolabeled by [^3H]-AzAt. The sample was then either directly purified by ultracentrifugation through a sucrose cushion to determine the photoincorporation stoichiometry in the complex, or subjected to phenol/chloroform extraction to determine the photoincorporation stoichiometry in the total RNA. To determine the photoincorporation background arising from incomplete removal of noncovalently bound photolyzed AzAt, AzAt was prephotolysed for 5 min before adding to the complex, followed by the 20 min incubation in dark at 37° C. and subsequent sucrose cushion purification or RNA extraction as described above.
as §1
Small RNAs. AzAt photoincorporation into the 4 small RNAs (CrPV-IRES, 5.8S rRNA, 5S rRNA, and tRNA) contained within POST5 was examined by one-dimensional (1D) urea-PAGE analysis, by RNA-Seq, and by RNAse H fragment assay (FIG. 11).

eRF1 = target: T1, eRF1 (Saccharomyces cerevisiae, UniProt P12385); assay: [3H]-AzAt photoaffinity labeling of isolated eRF1; format: binding
T1 construct: made in house; host or cells: E. coli BL21(DE3) CodonPlus
Protocol: as §2
(§3) Photoaffinity labeling of release factors. Solutions containing eRF1 (10 μM), eRF3 (20 μM) and 1 mM GMPPMP were pre-incubated at 37° C. for 2 min to form the ternary complex prior to photolabeling with [^3H]-AzAt. After quenching, reaction mixtures were loaded onto a 4-15% mini protean SDS-PAGE gel for protein separation and isolation. Gel slices containing eRF1 or eRF3, as shown by Coomassie Blue R250 staining, were crushed and the radioactivity was extracted in extraction buffer (50 mM Tris-HCl, 150 mM NaCl, and 0.1 mM EDTA; pH 7.5) by vigorously shaking at 70° C. for 30 min. The data fitting was performed using the software Prism. Labeling results of eRF1 alone and within the eRF1.eRF3.GDPNP complex were fit with a one-site binding model and a two-site binding model, respectively.

[3] = target: T2, eRF1.eRF3.GDPNP ternary complex (Saccharomyces cerevisiae, UniProt P12385); assay: [3H]-AzAt photoaffinity labeling of eRF1 within ternary complex; format: binding
T2 construct: made in house; host or cells: E. coli BL21(DE3) CodonPlus
Protocol: as §2, §3

[4] = Stop-POST5, PAL, 30 μM AzAt, alone or plus Ataluren 500 μM / GJ072 150 μM named as label
[5] = PAL, 30 μM AzAt, alone (AzAt) or plus competing ligand named as label (Ataluren 500 μM, GJ072 150 μM)
[6] = PAL, 30 μM AzAt, alone or plus competing ligand named as label
[7] = Stop-POST5, PAL, 300 μM AzAt, alone or plus competing ligand named as label
[8] = Stop-POST5, PRE, 300 μM prephotolysed AzAt
[9] = PAL, 300 μM AzAt, alone or plus competing ligand named as label

T1 sequence (P12385 whole entry): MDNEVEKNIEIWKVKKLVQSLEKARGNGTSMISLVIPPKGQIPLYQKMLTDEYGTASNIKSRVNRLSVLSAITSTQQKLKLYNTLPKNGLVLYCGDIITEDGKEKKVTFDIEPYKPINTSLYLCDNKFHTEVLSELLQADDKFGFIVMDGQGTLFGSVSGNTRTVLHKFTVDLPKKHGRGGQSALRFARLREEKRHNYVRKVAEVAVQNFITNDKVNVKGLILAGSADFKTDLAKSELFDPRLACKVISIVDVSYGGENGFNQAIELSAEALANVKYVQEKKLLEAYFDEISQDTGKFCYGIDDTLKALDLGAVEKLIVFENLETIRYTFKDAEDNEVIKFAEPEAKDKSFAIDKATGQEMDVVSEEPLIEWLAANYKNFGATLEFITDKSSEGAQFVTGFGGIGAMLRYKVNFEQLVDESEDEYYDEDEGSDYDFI
T2 sequence (P05453 166-685): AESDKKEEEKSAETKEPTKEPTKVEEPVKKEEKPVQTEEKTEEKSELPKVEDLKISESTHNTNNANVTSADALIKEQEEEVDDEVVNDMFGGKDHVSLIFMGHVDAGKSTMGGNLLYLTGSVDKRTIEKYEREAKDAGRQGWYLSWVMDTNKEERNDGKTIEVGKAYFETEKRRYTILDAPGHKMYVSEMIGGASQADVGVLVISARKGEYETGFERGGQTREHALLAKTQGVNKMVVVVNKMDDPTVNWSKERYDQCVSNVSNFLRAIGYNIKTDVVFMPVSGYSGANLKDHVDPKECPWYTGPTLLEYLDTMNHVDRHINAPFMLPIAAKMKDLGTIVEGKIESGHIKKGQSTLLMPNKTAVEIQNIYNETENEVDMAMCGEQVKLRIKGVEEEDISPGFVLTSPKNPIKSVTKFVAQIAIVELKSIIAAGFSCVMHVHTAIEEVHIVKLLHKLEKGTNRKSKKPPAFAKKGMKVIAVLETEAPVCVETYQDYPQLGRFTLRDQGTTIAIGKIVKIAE
T2 sequence (P12385 whole entry): as the sequence (P12385 whole entry) above

O=C(O)c1cccc(-c2noc(-c3ccccc3F)n2)c1 [Ataluren]
effect on AzAt photoincorporation into Fragment IV (26S A1437/A1438) [1]: neither ataluren nor GJ072 reduce labeling at all
effect on AzAt photoincorporation into Fragment I (18S-A1195) ([1]; Stop-POST5): strongly inhibits
effect on AzAt photoincorporation into Fragment II (A3093) ([1]; Stop-POST5): stimulated
effect on AzAt photoincorporation into Fragment III (A2669/A2672) ([1]; Stop-POST5): only weakly inhibited
Photoincorporation yields into 18S A1195/ I: 18S 1151-1206 [1, 4]: 0.06 ± 0.01 mole %
Photoincorporation yields into 26S-A2669:A2672/ III: 26S 2638-2702 [1, 4]: 0.10 ± 0.04 mole %
Photoincorporation yields into 26S-A3093/ II: 26S 3069-3113 [1, 4]: 0.06 ± 0.01 mole %
Photoincorporation yields into RNAse H Fragment IV: 26S 1413-1476 [1, 4]: 0.034 ± 0.006%
Photoincorporation yields into CrPV-IRES nts1-155 [2, 5]: 0.40 ± 0.13 mole %
Photoincorporation yields into 5S rRNA [2, 6]: 0.15 ± 0.01 mole %
Photoincorporation yields into 5.8S rRNA [2, 6]: 0.19 ± 0.01 mole %
Photoincorporation yields into CrPV-IRES All [2, 6]: 0.76 ± 0.05 mole %
Photoincorporation yields into CrPV-IRES nts156-221 [2, 6]: 0.17 ± 0.03 mole %
Photoincorporation yields into CrPV-IRES nts222-278 [2, 6]: 0.07 ± 0.06 mole %
Photoincorporation yields into tRNA^Gln [2, 6]: 0.22 ± 0.03 mole %
effect on AzAt labeling of CrPV-IRES fragments 1-155 and 156-221 ([2]; RNAse H fragment assay): no clearly significant changes
effect on AzAt labeling of small RNAs ([2]; none clearly significant): generally small reductions
effect on AzAt photoincorporation into isolated eRF1 (eRF1; FIG. 2E): substantially inhibited
inhibition of AzAt photoincorporation into eRF1 within the ternary complex ([3]; compared with isolated eRF1, FIG. 2E): less marked

[N-]=[N+]=Nc1ccc(-c2nc(-c3cccc(C(=O)O)c3)no2)cc1 [AzAt]
saturating value of photo-incorporation into Fragment II ([1]; FIG. 7B): 0.8%
saturating value of photo-incorporation into Fragment III ([1]; FIG. 7B): 0.8%
Photoincorporation yields into 18S A1195/ I: 18S 1151-1206 [1, 4]: 0.26 ± 0.03 mole %
Photoincorporation yields into 26S-A2669:A2672/ III: 26S 2638-2702 [1, 4]: 0.13 ± 0.04 mole %
Photoincorporation yields into 26S-A3093/ II: 26S 3069-3113 [1, 4]: 0.03 ± 0.01 mole %
Photoincorporation yields into RNAse H Fragment IV: 26S 1413-1476 [1, 4]: 0.020 ± 0.003%
Photoincorporation yields into 26S-A2669:A2672/ III: 26S 2638-2702 [1, 7]: 1.07 ± 0.14 mole %
Photoincorporation yields into 26S-A3093/ II: 26S 3069-3113 [1, 7]: 0.40 ± 0.01 mole %
Photoincorporation yields into RNAse H Fragment IV: 26S 1413-1476 ([1]; Stop-POST5, PAL, 300 μM AzAt, alone or plus competing ligand named as label (eRF1 2 μM, eRF3 4 μM, GDPNP 1 mM)): 0.29 ± 0.03%
Photoincorporation yields into 18S A1195/ I: 18S 1151-1206 ([1]; Stop-POST5, PAL, 300 μM AzAt, alone or plus competing ligand named as label (eRF1 2 μM, eRF3 4 μM, GDPNP)): 1.55 ± 0.20 mole %
Photoincorporation yields into 18S A1195/ I: 18S 1151-1206 [1, 8]: 0.012 ± 0.003 mole %
Photoincorporation yields into 26S-A2669:A2672/ III: 26S 2638-2702 [1, 8]: 0.03 ± 0.02 mole %
Photoincorporation yields into 26S-A3093/ II: 26S 3069-3113 [1, 8]: 0.04 ± 0.01 mole %
KA, photoincorporation into Fragments II and III (PTC) ([1]; fit to eq (1)): 200 ± 40 µM
Kd ([1]; simple hyperbolic binding isotherm, FIG. 7A, read-out: apparent KD, photoincorporation into Fragment I (18S-A1195)): 240 ± 10 µM
Photoincorporation yields into CrPV-IRES nts1-155 [2, 5]: 0.56 ± 0.04 mole %
Photoincorporation yields into 5S rRNA [2, 6]: 0.19 ± 0.01 mole %
Photoincorporation yields into 5.8S rRNA [2, 6]: 0.25 ± 0.01 mole %
Photoincorporation yields into CrPV-IRES All [2, 6]: 0.85 ± 0.14 mole %
Photoincorporation yields into CrPV-IRES nts156-221 [2, 6]: 0.23 ± 0.08 mole %
Photoincorporation yields into CrPV-IRES nts222-278 [2, 6]: 0.06 ± 0.04 mole %
Photoincorporation yields into tRNA^Gln [2, 6]: 0.30 ± 0.04 mole %
Photoincorporation yields into CrPV-IRES nts1-155 ([2]; PAL, 300 μM AzAt, alone (AzAt) or plus competing ligand named as label (eRF1 2 μM, eRF3 4 μM, GDPNP 1 mM)): 7.6 ± 1.5 mole %
Photoincorporation yields into 5S rRNA [2, 9]: 1.62 ± 0.11 mole %
Photoincorporation yields into 5.8S rRNA [2, 9]: 0.89 ± 0.10 mole %
Photoincorporation yields into CrPV-IRES All [2, 9]: 7.3 ± 0.5 mole %
Photoincorporation yields into CrPV-IRES nts156-221 [2, 9]: 3.2 ± 0.8 mole %
Photoincorporation yields into CrPV-IRES nts222-278 [2, 9]: 0.02 ± 0.03 mole %
Photoincorporation yields into tRNA^Gln [2, 9]: 2.3 ± 0.2 mole %
Photoincorporation yields into 5S rRNA ([2]; PRE, 300 μM prephotolysed AzAt): 0.02 ± 0.01 mole %
Photoincorporation yields into 5.8S rRNA ([2]; PRE, 300 μM prephotolysed AzAt): 0.02 ± 0.01 mole %
Photoincorporation yields into CrPV-IRES All ([2]; PRE, 300 μM prephotolysed AzAt): 0.02 ± 0.01 mole %
Photoincorporation yields into CrPV-IRES nts1-155 ([2]; PRE, 300 μM prephotolysed AzAt): 0.02 ± 0.01 mole %
Photoincorporation yields into CrPV-IRES nts156-221 ([2]; PRE, 300 μM prephotolysed AzAt): 0.05 ± 0.04 mole %
Photoincorporation yields into CrPV-IRES nts222-278 ([2]; PRE, 300 μM prephotolysed AzAt): 0.03 ± 0.01 mole %
Photoincorporation yields into tRNA^Gln ([2]; PRE, 300 μM prephotolysed AzAt): 0.41 ± 0.09 mole %
Kd (eRF1; hyperbolic saturation curve, read-out: Kd, photoincorporation into isolated eRF1): 110 ± 20 µM
Kd ([3]; two-site model, read-out: Kd, tight site photoincorporation into eRF1 within ternary complex): 90 ± 20 µM
